Assay results as given in US20250248979A1, “NOVEL GPX4 INHIBITORS AND USES THEREOF” (THE TRUSTEES OF COLUMBIA UNIVERSITY IN THE CITY OF NEW YORK, priority 2022, published 2025).

target: T1, GPX4 (Homo sapiens, UniProt P36969); assay: GPX4 activity assay in cell lysates (NADPH-coupled); format: biochemical; set-up: endogenous in cells; host or cells: A-673 cell lysate; conditions: not given
T1 sequence (P36969 1-170 isoform P36969-2): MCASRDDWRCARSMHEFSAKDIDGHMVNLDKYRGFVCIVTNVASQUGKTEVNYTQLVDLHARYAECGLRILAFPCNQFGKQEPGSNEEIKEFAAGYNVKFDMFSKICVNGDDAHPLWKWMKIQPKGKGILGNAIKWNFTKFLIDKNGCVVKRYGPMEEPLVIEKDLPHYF
Procedure: Determination of GPX4 activity in cell lysates was performed as previously described by Roveri et al. 1994 with minor modifications. Briefly, the assay measures the consumption of NADPH, which has a characteristic absorbance at 340 nm, over time as a proxy for GPX4 activity. The rationale for this is that as GPX4 reduces phospholipid hydroperoxides, it oxidizes glutathione, which is then regenerated by glutathione reductase at the expense of NADPH. NADPH is added to the assay in excess such that the reduction of oxidized glutathione is not the rate-limiting reaction in the assay. Thus, the resulting reduction in NADPH absorbance over time reflects GPX4 activity.
The GPX4-specific substrate phosphatidylcholine hydroperoxide (PCOOH) was prepared by enzymatic hydroperoxidation. Specifically, 0.3 mM phosphatidylcholines (Sigma-Aldrich) were incubated with 0.7 mg soybean lipoxidase type IV (Sigma-Aldrich) in 22 mL of 0.2 M Tris-HCl pH 8.8 with 3 mM sodium deoxycholate at room temperature under continuous stirring for 30 minutes. A Sep-Pak C18 cartridge (Waters-Millipore) was pre-washed with methanol and equilibrated with water, then the substrate mixture was loaded. The column was washed with 10 volumes of water and PCOOH was eluted with 2 mL of methanol.
To prepare the cell lysate containing native GPX4, A-673 cells were cultured with 20 nM sodium selenite to confluency over two days then harvested and washed with cold PBS. Cells were then resuspended at 10 million cells per 1 mL LCW lysis buffer (0.5% peroxide-free Triton X-100, 0.5% sodium deoxycholate salt, 150 mM NaCl, 20 mM Tris-HCl pH 7.5, 10 mM EDTA, 30 mM sodium pyrophosphate, and complete protease inhibitor cocktail), vortexed for 30 seconds, and incubated on ice for 15 minutes. After lysis, the lysates were centrifuged at 14,000×g and 4° C. for 15 minutes. The supernatants were transferred to new pre-chilled tube and the debris pellet was discarded. The protein concentration in the lysate was determined for normalization using the BCA Protein Assay Kit (Pierce).
To measure GPX4 activity, 50 μL of cell lysate was combined with 200 μL activity assay buffer (0.1% Triton X-100, 100 mM Tris-HCl pH 8.0, 10 mM sodium azide, 5 mM EDTA, 0.6 IU/mL glutathione reductase, 0.5 mM NADPH and 3 mM GSH) and compounds of interest in a clear 96-well plate and incubated at 37° C. for 45 minutes. Compounds were dissolved in DMSO. All conditions were tested in triplicate. PCOOH substrate was added to the mixture to initiate GPX4 activity just before reading the plate. The absorbance of NADPH at 340 nm was monitored kinetically over time for 25 minutes. Buffer-only controls and controls without substrate containing only the methanol vehicle were performed to assess background and baseline signal. GPX4 activity was calculated as previously reported by Stolwijk et al. 2020 and results were analyzed in GraphPad Prism 9.

| Compound | GPX4 inhibitory activity, result in words |
| --- | --- |
| CC(C)(COC(=O)CCl)NC(=O)c1n[nH]c2cc(-c3ccc(N4CCOCC4)c(Cl)c3)ccc12 [QW-583] | slight loss of inhibitory activity |
| CC(C)Oc1ccc(-c2ccc3c(C(=O)NC(C)(C)COC(=O)CCl)nn(C)c3c2)cn1 [QW-720] | substantially higher GPX4 inhibitory activities than QW-446 |

same assay, conditions: 2.5 μM

| Compound | GPX4% inhibition at 2.5 μM [%] |
| --- | --- |
| Cn1nc(C(=O)NC(C)(C)COC(=O)CCl)c2ccc(-c3cccc(C=O)c3)cc21 [QW-599] | 51.0 ± 4.4 |
| Cn1nc(C(=O)NC(C)(C)COC(=O)CCl)c2ccc(-c3ccc(Br)cc3)cc21 [QW-603] | 45.5 ± 4.4 |
| COc1ccc(-c2ccc3c(C(=O)NC(C)(C)COC(=O)CBr)nn(C)c3c2)cc1Cl [QW-608] | 72.2 ± 5.9 |
| C=CC(=O)OCC(C)(C)NC(=O)c1nn(C)c2cc(-c3ccc(OC)c(Cl)c3)ccc12 [QW-609] | 6.7 ± 11.9 |
| COc1ccc(-c2ccc3c(C(=O)NC(C)(C)COC(=O)CCl)nn(C)c3c2)cc1Br [QW-611] | 81.5 ± 1.9 |
| COc1ccc(-c2ccc3c(C(=O)NC(C)(C)COC(=O)C#C[Si](C)(C)C)nn(C)c3c2)cc1Cl [QW-612] | −5.7 ± 11.7 |
| CN1CCN(Cc2ccc(-c3ccc4c(C(=O)NC(C)(C)COC(=O)CCl)nn(C)c4c3)cc2)CC1 [QW-617] | 80.9 ± 3.4 |
| Cn1nc(C(=O)NC(C)(C)COC(=O)CCl)c2ccc(-c3ccc(NS(C)(=O)=O)cc3)cc21 [QW-618] | 18.1 ± 5.9 |
| Cn1nc(C(=O)NC(C)(C)COC(=O)CCl)c2ccc(-c3ccc(C(=O)N4CCN(C(=O)OC(C)(C)C)CC4)cc3)cc21 [QW-619] | 42.6 ± 8.0 |
| C=C(C)C(=O)Nc1ccc(-c2ccc3c(C(=O)NC(C)(C)COC(=O)CCl)nn(C)c3c2)cc1 [QW-620] | 63.8 ± 7.8 |
| Cn1nc(C(=O)NC(C)(C)CNC(=O)CCl)c2ccc(-c3ccc(N4CCOCC4)c(Cl)c3)cc21 [QW-629] | 14.9 ± 16.7 |
| CSc1ccc(-c2ccc3c(C(=O)NC(C)(C)CNC(=O)CCl)nn(C)c3c2)cc1Cl [QW-631] | 14.3 ± 16.5 |
| COC(=O)c1ccc(-c2ccc3c(C(=O)NC(C)(C)CNC(=O)CCl)nn(C)c3c2)cc1Cl [QW-632] | −4.9 ± 21.8 |
| CC(C)Oc1ccc(-c2ccc3c(C(=O)NC(C)(C)CNC(=O)CCl)nn(C)c3c2)cc1Cl [QW-635] | 14.0 ± 15.4 |
| Cn1nc(C(=O)NC(C)(C)CNC(=O)CCl)c2ccc(-c3ccc(Cl)c(Cl)c3)cc21 [QW-636] | 50.2 ± 22.0 |
| CC=CC(=O)OCC(C)(C)NC(=O)c1nn(C)c2cc(-c3ccc(OC)c(Cl)c3)ccc12 [QW-644] | 31.4 ± 18.5 |
| COC(=O)C=CC(=O)OCC(C)(C)NC(=O)c1nn(C)c2cc(-c3ccc(OC)c(Cl)c3)ccc12 [QW-646] | 52.0 ± 27.0 |

| Compound | GPX4% inhibition at 2.5 μM [%] |
| --- | --- |
| CN(C)CCCOc1ccc(-c2ccc3c(C(=O)NC(C)(C)COC(=O)CCl)nn(C)c3c2)cc1 [QW-647] | 46.9 ± 35.9 |
| Cn1nc(C(=O)NC(C)(C)COC(=O)CCl)c2ccc(-c3cc4cc(F)ccc4n3C(=O)OC(C)(C)C)cc21 [QW-659] | −1.2 ± 15.2 |
| COc1ccc(-c2ccc3c(C(=O)N4CCC(OC(=O)CCl)C4(C)C)nn(C)c3c2)cc1Cl (centres unmarked) [QW-676] | 22.9 ± 12.1 |
| CCOc1ccc(-c2ccc3c(-n4cc(C(C)(C)COC(=O)CCl)nn4)nn(C)c3c2)cc1Cl [QW-681] | 31.0 ± 4.9 |
| Cn1nc(C(=O)NC(COC(=O)CCl)C(F)(F)F)c2ccc(-c3ccc(N4CCOCC4)c(Cl)c3)cc21 (centres unmarked) [QW-687] | 7.9 ± 2.3 |
| Cn1nc(C(=O)N2CCC(OC(=O)CCl)C2(C)C)c2ccc(-c3ccc(N4CCOCC4)c(Cl)c3)cc21 (centres unmarked) [QW-691] | 30.5 ± 7.4 |
| COc1ccc(-c2ccc3c(-c4nnc(C(C)(OC(=O)CCl)C(F)(F)F)o4)nn(C)c3c2)cc1Cl (centres unmarked) [QW-699] | 2.4 ± 17.3 |
| Cn1nc(-c2nnc(C(C)(OC(=O)CCl)C(F)(F)F)o2)c2ccc(-c3ccc(N4CCOCC4)c(Cl)c3)cc21 (centres unmarked) [QW-700] | −2.2 ± 5.0 |
| Cn1nc(C(=O)N2CCC(OC(=O)CCl)C2(C)C)c2ccc(-c3ccc4c(c3)OCO4)cc21 (centres unmarked) [QW-702] | 23.8 ± 3.7 |
| Cn1nc(C(=O)NC(C)(C)COC(=O)CCl)c2ccc(-c3ccc(OCC(F)(F)F)cc3)cc21 [QW-719] | 2.4 ± 17.3 |
| CC(C)Oc1ccc(-c2ccc3c(C(=O)NC(C)(C)COC(=O)CCl)nn(C)c3c2)cn1 [QW-720] | 76.9 ± 4.2 |
| COc1ccc(-c2ccc3c(NC(=O)C(C)(C)COC(=O)CCl)nn(C)c3c2)cc1Cl [QW-722] | −2.2 ± 5.0 |
| Cn1nc(C(=O)NC(C)(C)COC(=O)CCl)c2ccc(-c3ccc(S(=O)(=O)N4CCC4)cc3)cc21 [QW-724] | 23.8 ± 3.7 |
| COc1c(Cl)cc(-c2ccc3c(-n4cc(CCOC(=O)CCl)nn4)nn(C)c3c2)cc1Cl [QW-752] | −6.6 ± 9.7 |
| Cn1nc(-n2cc(CCOC(=O)CCl)nn2)c2ccc(-c3ccc(N4CCOCC4)c(Cl)c3)cc21 [QW-756] | 41.6 ± 9.0 |
| Cn1nc(C(=O)NC(C)(C)C(C)(C)OC(=O)CCl)c2ccc(-c3ccc(OC(F)(F)F)c(Cl)c3)cc21 [QW-759] | 18.4 ± 8.3 |
| CC(C)Oc1ncc(-c2ccc3c(-n4cc(C(C)(C)COC(=O)CCl)nn4)nn(C)c3c2)cn1 [QW-760] | 14.6 ± 12.4 |

same assay, conditions: 2.5 μM; generation 2

| Compound | GPX4% inhibition at 2.5 μM [%] |
| --- | --- |
| Cn1nc(C(=O)NC(C)(C)CC(=O)N2CCN(C(=O)CCl)CC2)c2ccc(Br)cc21 [QW-638] | 39.0 ± 26.2 |
| C=C(CN1CCOCC1)C(=O)NCC(C)(C)NC(=O)c1nn(C)c2cc(Br)ccc12 [QW-648] | 15.8 ± 24.7 |
| Cn1nc(C(=O)N2CCC(OC(=O)CCl)C2(C)C)c2ccc(Br)cc21 (centres unmarked) [QW-673] | 41.9 ± 63.4 |
| Cn1nc(C(=O)NC(COC(=O)CCl)C(F)(F)F)c2ccc(Br)cc21 (centres unmarked) [QW-683] | −37.4 ± 5.2 |
| Cn1nc(-c2nnc(C(C)(OC(=O)CCl)C(F)(F)F)o2)c2ccc(Br)cc21 (centres unmarked) [QW-694] | 10.6 ± 5.8 |

same assay, conditions: 5 μM

| Compound | GPX4% inhibition at 5 μM [%] |
| --- | --- |
| COc1ccc(-c2ccc3c(C(=O)NC(C)(C)COC(=O)CCl)nn(C)c3c2)cc1F [QW-567] | 54.7 ± 3.4 |
| CN(C)c1ccc(-c2ccc3c(C(=O)NC(C)(C)COC(=O)CCl)nn(C)c3c2)cc1 [QW-568] | 67.5 ± 3.9 |
| COC(=O)c1ccc(-c2ccc3c(C(=O)NC(C)(C)COC(=O)CCl)nn(C)c3c2)cc1Cl [QW-571] | 82.5 ± 5.2 |
| COC(=O)C=Cc1ccc(-c2ccc3c(C(=O)NC(C)(C)COC(=O)CCl)nn(C)c3c2)cc1 [QW-574] | 72.8 ± 7.7 |
| Cn1nc(C(=O)NC(C)(C)COC(=O)CCl)c2ccc(-c3ccc(C=CCCl)cc3)cc21 [QW-575] | 35.9 ± 1.3 |
| Cn1nc(C(=O)NC(C)(C)COC(=O)CCl)c2ccc(-c3cnn(Cc4ccccc4)c3)cc21 [QW-579] | 66.3 ± 3.4 |
| CC(C)(COC(=O)CCl)NC(=O)c1n[nH]c2cc(-c3ccc(N4CCOCC4)c(Cl)c3)ccc12 [QW-583] | 70.9 ± 6.7 |
| COc1ccc(-c2ccc3c(c2)c(C(=O)NC(C)(C)COC(=O)CCl)nn3C)cc1Cl [QW-584] | 9.5 ± 5.1 |
| Cn1nc(C(=O)NC(C)(C)COC(=O)CCl)c2cc(-c3ccc(N4CCOCC4)c(Cl)c3)ccc21 [QW-585] | 23.3 ± 5.2 |
| COc1ccc(F)c(-c2ccc3c(C(=O)NC(C)(C)COC(=O)CCl)nn(C)c3c2)c1 [QW-588] | 59.5 ± 5.7 |
| COc1ccc(Cl)cc1-c1ccc2c(C(=O)NC(C)(C)COC(=O)CCl)nn(C)c2c1 [QW-590] | 53.5 ± 6.3 |
| Cn1nc(C(=O)NC(C)(C)COC(=O)CCl)c2ccc(-c3ccc(C=O)cc3)cc21 [QW-591] | 69.4 ± 3.3 |
| Cn1nc(C(=O)NC(C)(C)CNC(=O)CCl)c2ccc(-c3ccc(Cl)c(Cl)c3)cc21 [QW-636] | 76.4 ± 32.7 |
| COC(=O)C=CC(=O)OCC(C)(C)NC(=O)c1nn(C)c2cc(-c3ccc(OC)c(Cl)c3)ccc12 [QW-646] | 30.6 ± 12.2 |
| CN(C)CCCOc1ccc(-c2ccc3c(C(=O)NC(C)(C)COC(=O)CCl)nn(C)c3c2)cc1 [QW-647] | 20.9 ± 14.0 |
| Cn1nc(C(=O)NC(C)(C)COC(=O)CCl)c2ccc(-c3cc4cc(F)ccc4n3C(=O)OC(C)(C)C)cc21 [QW-659] | 8.5 ± 13.4 |

same assay, conditions: concentration not given

| Compound | GPX4 inhibition rate |
| --- | --- |
| CN(C)c1ccc(-c2ccc3c(C(=O)NC(C)(C)COC(=O)CCl)nn(C)c3c2)cc1 [QW-568] | 50% |
| Cn1nc(C(=O)NC(C)(C)COC(=O)CCl)c2ccc(-c3ccc(OCC(F)(F)F)cc3)cc21 [QW-719] | no inhibition on GPX4 |
